IC50 data for 21 compounds are collected here from patent US9394297B2, “Amides as pim inhibitors” (AMGEN INC., priority 2012, dated 2016).

pIC50: −log10 of the molar value. Where two headings read alike, the source gives them in different places.

For assay [1], the target named is T1, Pim-2 (Homo sapiens (Human), UniProt Q9P1W9). As to the kind of experiment: Pim-Mn enzyme assay (HTRF, 384-well), Pim-2. Type of assay: biochemical. As to conditions: Pim-2 enzyme 0.5 pM, ATP 1.5 μM, BAD (S112) 0.5 μM, HTRF, 22-point curve; read-out: Pim-2-Mn IC50 IP.
T1 sequence (Q9P1W9 whole entry): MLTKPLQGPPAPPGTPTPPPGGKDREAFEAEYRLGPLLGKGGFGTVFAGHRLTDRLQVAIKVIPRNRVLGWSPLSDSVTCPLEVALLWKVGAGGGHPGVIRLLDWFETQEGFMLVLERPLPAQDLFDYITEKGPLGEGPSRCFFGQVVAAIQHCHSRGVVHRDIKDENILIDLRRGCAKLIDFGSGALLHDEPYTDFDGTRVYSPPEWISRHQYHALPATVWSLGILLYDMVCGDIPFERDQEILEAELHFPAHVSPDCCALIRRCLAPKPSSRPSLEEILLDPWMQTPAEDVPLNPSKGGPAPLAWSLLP
Assay [2] addresses T2, Pim-1 (Homo sapiens (Human), UniProt P11309). As to the kind of experiment: Pim-Mn enzyme assay (HTRF, 384-well), Pim-1. Format: biochemical. The settings on record: Pim-1 enzyme 5 pM, ATP 1.5 μM, BAD (S112) 0.5 μM, HTRF, 22-point curve; read-out: Pim-1-Mn IC50 IP. (In general: TR-FRET usually uses a lanthanide donor and a delayed reading to cut background.)
Assay [3] deals with T2, Pim-1. As to the kind of experiment: Pim enzyme assay (HTRF, 96-well), Pim-1. Format: biochemical. As to conditions: full length recombinant Pim-1, biotinylated-BAD (S112) peptide, 10-point curve, 2 h RT, read-out: Pim-1 IC50 IP. From the text:
(§1) These cDNAs were used as templates in PCR reactions to produce full-length DNA clones of the PIMs. […] PCR products were digested with BclI and EcoRI for Pim-1 and BamHI and EcoRI for Pim-2 and ligated into a modified baculovirus transfer vector (pFastBac1) cleaved with BamHI and EcoRI. For bacterial expression, the same cleaved PCR products encoding Pim-1 or Pim-2 were ligated into a modified E. coli expression vector pET28(a) cleaved with BamHI and EcoRI. Amino-terminal hexahistidine tags followed by a thrombin cleavage site were previously added to the vectors using standard methods of molecular biology.
(§2) Recombinant baculoviruses expressing Pim-1 or Pim-2 were made using standard methods (Fastbac manual, Invitrogen, Carlsbad, Calif.). […] Cells were harvested by centrifugation and frozen at −80 C. For E. coli expression, cells carrying pET28-His6-Th-Pim-1 or pET28-His6-Th-Pim-2 were picked from a single colony and grown o/n in LB media. The o/n culture was used to inoculate a 2 liter flask with 500 mL media. This was grown o/n and used to inoculate 15-20 liters of Terrific Broth in a New Brunswick Scientific fermentor. The E. coli were grown at 37° C. to and OD600 >1.6. The temperature was dropped to 18° C. and o/n expression was induced with 0.5 mM IPTG. Cells were harvested by centrifugation and frozen at −80° C.
(§3) The slurry was centrifuged at 1,000×g for 5 min, the supernatant decanted, and the resin suspended in 40 mL of lysis wash buffer (lysis buffer at 0.75 M NaCl). This step was repeated 3× and the resin was transferred to a 2.5 cm glass column. Ten column volumes of wash buffer (0.05 M HEPES, pH 8.0, 0.1 M NaCl, 0.01 M 2-mercaptoethanol, 10%(w/v) glycerol) were applied to the resin followed by 10 column volumes of elution buffer (0.05 M HEPES, pH 8.0, 0.25 M NaCl, 0.01 M 2-mercaptoethanol, 10%(w/v) glycerol, 0.1 M imidazole). Fractions were analyzed by SDS-PAGE and those containing the protein of interest were pooled and concentrated. The concentrated protein was applied to an Amersham Superdex 75 (XK 26/60) column equilibrated in 0.025 M Tris-HCl, pH 7.5, 0.1 M NaCl, 0.01 M 2-mercaptoethanol, 10% (w/v) glycerol. […] Fractions containing the monomeric protein of interest were pooled, concentrated to ˜2 mg/mL, and stored at −80° C.
(§4) The phosphorylation of biotinylated-BAD (S112) peptide by full length recombinant Pim-1, Pim-2, or Pim-3 protein was detected with streptavidin:Allophycocyanin (APC) conjugate and a europium (Eu) labeled antibody directed against phosphorylated-BAD (S112). […] The fluorescence is directly proportional to the amount of phosphorylated BAD peptide present in the reaction. […] A reference compound was included on each assay plate in order to validate that plate; on one plate of every assay run, two additional reference compounds were included. The final buffer conditions were as follows: 60 mM Hepes, pH 7.0, 0.05% BSA, 2 mM DTT. Incubations were carried out at RT (22° C.) for 2 h for Pim-1, 1 hour and 30 min for Pim-3, and 45 min for Pim-2. The reaction was stopped by the addition of 3 mM EDTA, and fluorescence was measured by an HTRF® Rubystar microplate reader. For each plate, percent of control (POC) values were calculated for each well. Values for the IC50 IP were estimated using a standard 4-parameter logistic model.

Assay [4] deals with T1, Pim-2. Kind of assay: Pim enzyme assay (HTRF, 96-well), Pim-2. Format: biochemical. As to conditions: full length recombinant Pim-2, biotinylated-BAD (S112) peptide, 10-point curve, 45 min RT, read-out: Pim-2 IC50 IP.
Description: as §1, §2, §3, §4

In assay [5] the test system is KMS-12-BM myeloma cell line. As to the kind of experiment: Pim KMS-12 cell assay (phospho-BAD S112 / total BAD, MSD).
Another assay deals with KMS-12-BM cell lines. As to the kind of experiment: KMS12 #2 flow cytometry assay (phospho-BAD Ser112). Type of assay: cell-based. The settings on record: Homo sapiens, KMS-12-BM, 110 min, read-out: KMS-12-Flow IC50 IP. Background: A flow cytometer gives signals particle by particle.
Where [6] appears, read: Homo sapiens, KMS-12-BM, read-out: KMS-12-BM IC50 IP, KMS-12-BM cells, phospho-BAD (S112) vs total BAD, 1 hour 50 min with compound.

T2 sequence (P11309 whole entry): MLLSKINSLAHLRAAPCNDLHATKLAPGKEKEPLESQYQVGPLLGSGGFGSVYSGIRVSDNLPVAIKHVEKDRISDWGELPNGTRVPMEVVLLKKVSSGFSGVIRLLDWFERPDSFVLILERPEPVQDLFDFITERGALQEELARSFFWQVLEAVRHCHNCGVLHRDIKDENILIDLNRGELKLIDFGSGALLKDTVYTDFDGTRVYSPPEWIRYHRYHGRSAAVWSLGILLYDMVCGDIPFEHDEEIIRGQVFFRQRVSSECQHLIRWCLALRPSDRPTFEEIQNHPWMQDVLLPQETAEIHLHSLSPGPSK

As a reminder, the pIC50 is −log10 of the IC50, conventionally taken in molar units. As to `CC(C)CC1CNC(=O)c2cc(-c3cccc4cccnc34)[nH]c21` (racemic) [Example 125, rac-7-isobutyl-2-(quinolin-8-yl)-6,7-dihydro-1H-pyrrolo[3,2-c]pyridin-4(5H)-one], the pIC50 at Pim-2 [1] is 6.56; on Pim-1 [2] it was 7.68; at Pim-1 [3], 7.38. With `O=C(Nc1ccccc1)c1ccc2cccc(-c3cc4c([nH]3)CCNC4=O)c2n1` [Example 95, 8-(4-oxo-4,5,6,7-tetrahydro-1H-pyrrolo[3,2-c]pyridin-2-yl)-N-phenylquinoline-2-carboxamide], the pIC50 on Pim-1 [3] is 6.65. Turning to `O=C1NCCn2cc(-c3cccc4ccc(C(=O)N5CCCC5)nc34)cc21` [Example 168, 7-(2-(pyrrolidine-1-carbonyl)quinolin-8-yl)-3,4-dihydropyrrolo[1,2-a]pyrazin-1(2H)-one], the negative logarithm of the IC50 (pIC50) on Pim-1 [3] was 6.22.

As for `CC1CNC(=O)c2cc(-c3cccc4ccc(Cl)nc34)[nH]c21` (racemic) [Example 27, rac-2-(2-chloroquinolin-8-yl)-7-methyl-6,7-dihydro-1H-pyrrolo[3,2-c]pyridin-4(5H)-one], the negative-log IC50 (pIC50) on Pim-2 [4] was 6.44. Consider `Cc1nc2cccc(-c3cc4c([nH]3)CCNC4=O)c2nc1NC1CCC(=O)N(C)C1` (racemic) [Example 195, rac-2-(2-methyl-3-((1-methyl-6-oxopiperidin-3-yl)amino)quinoxalin-5-yl)-6,7-dihydro-1H-pyrrolo[3,2-c]pyridin-4(5H)-one 2,2,2-trifluoroacetate], for which, on Pim-2 [4], the negative-log IC50 (pIC50) is 6.75. Regarding `CCC1CNC(=O)c2cc(-c3cccc4cc(C)c(Nc5ccccc5)nc34)[nH]c21` (single isomer, unassigned) [Example 117, 7-ethyl-2-(3-methyl-2-(phenylamino)quinolin-8-yl)-6,7-dihydro-1H-pyrrolo[3,2-c]pyridin-4(5H)-one], the negative logarithm of the IC50 (pIC50) on Pim-1 [3] was 9.22; in assay [5] (setting [6]), 5.50. Consider `Cc1nc2cccc(-c3cc4n(c3)CCNC4=O)c2nc1NC1CC1` [Example 233, 7-(3-(cyclopropylamino)-2-methylquinoxalin-5-yl)-3,4-dihydropyrrolo[1,2-a]pyrazin-1(2H)-one 2,2,2-trifluoroacetate], for which the negative logarithm of the IC50 (pIC50) at Pim-1 [2] was 7.60; on Pim-1 [3], 7.35; in assay [5] (setting [6]) it was 6.21. On to `Cc1nc2cccc(-c3cc4c([nH]3)CCNC4=O)c2nc1NC1CCCCCC1` [Example 134, 2-(3-(cycloheptylamino)-2-methylquinoxalin-5-yl)-6,7-dihydro-1H-pyrrolo[3,2-c]pyridin-4(5H)-one], for which the pIC50 at Pim-1 [3] was 8.05. With `CCC1CNC(=O)c2cc(-c3cccc4cc(C)c(Nc5ccccc5)nc34)[nH]c21` (racemic) [Example 250, rac-7-ethyl-2-(3-methyl-2-(phenylamino)quinolin-8-yl)-6,7-dihydro-1H-pyrrolo[3,2-c]pyridin-4(5H)-one], the pIC50 was 9.00 at Pim-1 [3] and 5.55 in assay [5] (setting [6]). As for `COCCNC(=O)c1ccc2cccc(-c3cc4c([nH]3)CCNC4=O)c2n1` [Example 96, N-(2-methoxyethyl)-8-(4-oxo-4,5,6,7-tetrahydro-1H-pyrrolo[3,2-c]pyridin-2-yl)quinoline-2-carboxamide], the pIC50 on Pim-1 [3] is 6.55. Consider `CCC1CNC(=O)c2cc(-c3cccc4ccc(Cl)nc34)[nH]c21` (racemic) [Example 22, rac-2-(2-chloroquinolin-8-yl)-7-ethyl-6,7-dihydro-1H-pyrrolo[3,2-c]pyridin-4(5H)-one], for which the pIC50 at Pim-1 [3] is 7.22. As to `CCC1CNC(=O)c2cc(-c3cccc4ccc(Oc5ccccc5)nc34)[nH]c21` (racemic) [Example 23, rac-7-ethyl-2-(2-phenoxyquinolin-8-yl)-6,7-dihydro-1H-pyrrolo[3,2-c]pyridin-4(5H)-one], the pIC50 on Pim-1 [3] was 7.85. For `CN1CCN(C(=O)c2ccc3cccc(-c4cc5c([nH]4)CCNC5=O)c3n2)CC1` [Example 97, 2-(2-(4-methylpiperazine-1-carbonyl)quinolin-8-yl)-6,7-dihydro-1H-pyrrolo[3,2-c]pyridin-4(5H)-one], the pIC50 at Pim-1 [3] is 6.64. `Cn1cc(-c2cccc3ccc(Nc4ccccc4)nc23)cc1C(N)=O` [Example 164, 1-methyl-4-(2-(phenylamino)quinolin-8-yl)-1H-pyrrole-2-carboxamide]: the negative logarithm of the IC50 (pIC50) on Pim-1 [3] is 6.61. Regarding `CCC1CNC(=O)c2cc(-c3cccc4cc(C)c(Nc5ccccc5)nc34)[nH]c21` (single isomer, unassigned) [Example 118, 7-ethyl-2-(3-methyl-2-(phenylamino)quinolin-8-yl)-6,7-dihydro-1H-pyrrolo[3,2-c]pyridin-4(5H)-one], the pIC50 on Pim-1 [3] was 8.49; in assay [5] (read-out: KMS-12-BM IC50 IP, KMS-12-BM cells, phospho-BAD (S112) vs total BAD, 1 hour 50 min with compound), 5.28. Consider `Cc1nc2ccc(F)c(-c3cc4c([nH]3)CCNC4=O)c2nc1NC(C)(C)C` [Example 286, 2-(3-(tert-butylamino)-6-fluoro-2-methylquinoxalin-5-yl)-6,7-dihydro-1H-pyrrolo[3,2-c]pyridin-4(5H)-one], for which the pIC50 at Pim-2 [1] is 9.52; on Pim-1 [2] it was 9.54; in assay [5] (Homo sapiens, KMS-12-BM, read-out: KMS-12-BM IC50 IP), 6.84; in the assay on KMS-12-BM cell lines it was 7.55. As for `O=C1NCCc2[nH]c(-c3c(F)ccc4ccc(NC5CCCCC5)nc34)cc21` [Example 90, 2-(2-(cyclohexylamino)-7-fluoroquinolin-8-yl)-6,7-dihydro-1H-pyrrolo[3,2-c]pyridin-4(5H)-one], the pIC50 at Pim-1 [3] is 6.47. As for `Cc1nc2cccc(-c3cc4c(=O)[nH]cnc4[nH]3)c2nc1NC1CCC1` [Example 260, 6-(3-(cyclobutylamino)-2-methylquinoxalin-5-yl)-3H-pyrrolo[2,3-d]pyrimidin-4(7H)-one], the negative logarithm of the IC50 (pIC50) at Pim-2 [1] is 8.91; on Pim-1 [2], 8.80; in assay [5] (setting [6]), 6.61. On to `Cc1nc2cccc(-c3cc4c([nH]3)CCNC4=O)c2nc1NC1(C)CCCC1` [Example 67, 2-(2-methyl-3-((1-methylcyclopentyl)amino)-5-quinoxalinyl)-1,5,6,7-tetrahydro-4H-pyrrolo[3,2-c]pyridin-4-one], for which the pIC50 at Pim-2 [1] was 9.22; on Pim-1 [2], 9.40; in assay [5] (setting [6]), 6.78. For `Cc1nc2cccc(-c3cc4c([nH]3)CCNC4=O)c2nc1NC1CCOC1` (racemic) [Example 71, 2-(2-methyl-3-((±)-tetrahydro-3-furanylamino)-5-quinoxalinyl)-1,5,6,7-tetrahydro-4H-pyrrolo[3,2-c]pyridin-4-one], the figures for the pIC50 (on Pim-2 [1]; on Pim-1 [2]; in assay [5] (setting [6])) were 8.21, 8.19 and 6.32, respectively. With `O=C(NC1CC1)c1ccc2cccc(-c3cc4c([nH]3)CCNC4=O)c2n1` [Example 94, N-cyclopropyl-8-(4-oxo-4,5,6,7-tetrahydro-1H-pyrrolo[3,2-c]pyridin-2-yl)quinoline-2-carboxamide], the pIC50 on Pim-1 [3] was 6.57.
